Reference: US8399462B2, “JNK modulators” (Roche Palo Alto LLC, priority 2006, dated 2013)

| melting point [°C] | Compound |
| --- | --- |
| 263.2 to 263.8 | CC(=O)N[C@H]1CC[C@H](Nc2ncc(Cl)c(-n3ccc4ccccc43)n2)CC1 [Compound 119, N-[4-(5-chloro-4-indol-1-ylpyrimidin-2-yl-amino)-cyclohexyl]-acetamide] |
| 182 to 182.5 | O=C([C@H]1CC[C@H](Nc2ncc(Cl)c(-n3ccc4ccccc43)n2)CC1)N1CCCC1 [Compound 120, [4-(5-chloro-4-indol-1-ylpyrimidin-2-ylamino)-cyclohexyl]-pyrrolidin-1-ylmethanone] |
| 188 to 191.7 | CC(C)(O)[C@H]1CC[C@H](Nc2nccc(-n3ccc4c(CC#N)cccc43)n2)CC1 [Compound 123, (1-{2-[4-(1-hydroxy-1-methylethyl)-cyclo-hexylamino]-pyrimidin-4-yl}-1H-indol-4-yl)-acetonitrile] |
| 183 to 185 | CNC(=O)COc1cccc2c1cnn2-c1ccnc(N[C@H]2CC[C@H](C(=O)N(C)C)CC2)n1 [Compound 124, 4-[4-(4-methylcarba-moylmethoxy-indazol-1-yl)-pyrimidin-2-yl-amino]-cyclohexane-carboxylic acid dimethylamide] |
| 246.5 to 247 | COc1cccc2c1cnn2-c1ccnc(N[C@H]2CC[C@H](C(=O)N3CCCC3)CC2)n1 [Compound 125, {4-[4-(4-methoxy-indazol-1-yl)-pyrimidin-2-ylamino]-cyclohexyl}-pyrrolidin-1-ylmethanone] |
| 291.5 to 292.5 | COc1cccc2c1cnn2-c1ccnc(N[C@H]2CC[C@H](NS(C)(=O)=O)CC2)n1 [Compound 126, N-{4-[4-(4-methoxy-indazol-1-yl)-pyrimidin-2-ylamino]-cyclohexyl}-methanesulfonamide] |
| 242.7 to 245.5 | CC(=O)N[C@H]1CC[C@H](Nc2nccc(-n3ncc4c(OCCO)cccc43)n2)CC1 [Compound 130, N-(4-{4-[4-(2-hydroxy-ethoxy)-indazol-1-yl]-pyrimidin-2-ylamino}-cyclohexyl)-acetamide] |
| 248.7 to 249.4 | CS(=O)(=O)N[C@H]1CC[C@H](Nc2nccc(-n3ccc4c(F)cccc43)n2)CC1 [Compound 134, N-{4-[4-(4-fluoro-indol-1-yl)-pyrimidin-2-ylamino]-cyclohexyl}-methane sulfonamide] |
| 244.5 to 245.3 | CC(O)c1cccc2c1ccn2-c1ccnc(N[C@H]2CC[C@H](NS(C)(=O)=O)CC2)n1 (stereo partly shown) [Compound 135, N-(4-{4-[4-(1-hydroxy-ethyl)-indol-1-yl]-pyrimidin-2-ylamino}-cyclohexyl)-methane-sulfonamide] |
| 238.5 to 239.7 | CN(C)S(=O)(=O)N[C@H]1CC[C@H](Nc2nccc(-n3ncc4ccccc43)n2)CC1 [Compound 136, Dimethyl sulfonamide [4-(4-indazol-1-yl)-pyrimidin-2-ylamino]-cyclohexyl amine] |
| > 300 | CC(O)c1cccc2c1ccn2-c1ccnc(N[C@H]2CC[C@H](NS(=O)(=O)N(C)C)CC2)n1 (stereo partly shown) [Compound 137, N-(N′,N′-dimethylsulfonamido) N-{4-[4-(1-hydroxyethyl)-indol-1-yl-pyrimidin-2-yl-amino]-cyclohexyl} amine] |
| 119.5 to 121 | CS(=O)(=O)CCOCc1cccc2c1ccn2-c1ccnc(N[C@H]2CC[C@H](O)CC2)n1 [Compound 138, 4-{4-[4-(2-methane-sulfonyl-ethoxymethyl)-indol-1-yl]-pyrimidin-2-ylamino}-cyclohexanol] |
| 208.5 to 209.7 | CC(=O)N[C@H]1CC[C@H](Nc2nccc(-n3ccc4c(COCCS(C)(=O)=O)cccc43)n2)CC1 [Compound 139, N-(4-{4-[4-(2-methane-sulfonyl-ethoxymethyl)-indol-1-yl]-pyrimidin-2-ylamino}-cyclohexyl)-acetamide] |
| 177 to 177.8 | COCCOCc1cccc2c1ccn2-c1ccnc(N[C@H]2CC[C@H](NC(C)=O)CC2)n1 [Compound 140, N-(4-{4-[4-(2-methoxy-ethoxymethyl)-indol-1-yl]-pyrimidin-2-ylamino}-cyclohexyl)-acetamide] |
| 268.1 to 269.1 | CS(=O)(=O)N[C@H]1CC[C@H](Nc2nccc(-n3ncc4c(OCCO)cccc43)n2)CC1 [Compound 141, N-(4-{4-[4-(2-hydroxy-ethoxy)-indazol-1-yl]-pyrimidin-2-ylamino}-cyclohexyl)-methane-sulfonamide] |
| 253 to 254 | CCCOc1cccc2c1cnn2-c1ccnc(N[C@H]2CC[C@H](NS(C)(=O)=O)CC2)n1 [Compound 142, N-{4-[4-(4-propoxy-indazol-1-yl)-pyrimidin-2-ylamino]-cyclohexyl}-methanesulfonamide] |

| melting point [°C] | Compound |
| --- | --- |
| 187.5 to 188.5 | O=C([C@H]1CC[C@H](Nc2nccc(-n3ncc4c(OCCCO)cccc43)n2)CC1)N1CCCC1 [Compound 144, (4-{4-[4-(3-hydroxy-propoxy)-indazol-1-yl]-pyrimidin-2-ylamino}-cyclohexyl)-pyrrolidin-1-ylmethanone] |
| 248 to 250 | CN(C)S(=O)(=O)N[C@H]1CC[C@H](Nc2nccc(-n3ncc4c(OCCCO)cccc43)n2)CC1 [Compound 145, N-(N′,N′-dimethylsulfonamido) N-(4-{4-[4-(3-hydroxy-propoxy)-indazol-1-yl]-pyrimidin-2-ylamino}-cyclohexyl) amine] |
| 217.3 to 219 | CN(C)C(=O)[C@H]1CC[C@H](Nc2nccc(-n3ncc4c(OCc5ccccn5)cccc43)n2)CC1 [Compound 150, 4-{4-[4-(pyridine-2-yl-methoxy)-indazol-1-yl]-pyrimidin-2-ylamino}-cyclohexanecarboxylic acid dimethylamide] |
| 164 to 166 | O=C([C@H]1CC[C@H](Nc2nccc(-n3ncc4c(OCCO)cccc43)n2)CC1)N1CCCC1 [Compound 151, (4-{4-[4-(2-hydroxy-ethoxy)-indazol-1-yl]-pyrimidin-2-ylamino}-cyclohexyl)-pyrrolidin-1-ylmethanone] |
| 226 to 228 | CC(=O)N[C@H]1CC[C@H](Nc2nccc(-n3ncc4c(OCCCO)cccc43)n2)CC1 [Compound 152, N-(4-{4-[4-(3-hydroxy-propoxy)-indazol-1-yl]-pyrimidin-2ylamino}-cyclohexyl)-acetamide] |
| 183.4 to 184.5 | CS(=O)(=O)CCCOc1cccc2c1cnn2-c1ccnc(N[C@H]2CC[C@H](C(=O)N3CCCC3)CC2)n1 [Compound 155, (4-{4-[4-(3-methane-sulfonyl-propoxy)-indazol-1-yl]-pyrimidin-2-ylamino}-cyclohexyl)-pyrrolidin-1-ylmethanone] |
| 247 to 248 | CS(=O)(=O)CCCOc1cccc2c1cnn2-c1ccnc(N[C@H]2CC[C@H](NS(C)(=O)=O)CC2)n1 [Compound 156, N-(4-{4-[4-(3-methane-sulfonyl-propoxy)-indazol-1-yl]-pyrimidin-2-ylamino}-cyclohexyl)-methanesulfonamide] |
| 208.8 to 209.6 | CN([C@H]1CC[C@H](Nc2nccc(-n3ncc4c(OCCCS(C)(=O)=O)cccc43)n2)CC1)S(C)(=O)=O [Compound 158, N-(4-{4-[4-(3-methane-sulfonyl-propoxy)-indazol-1-yl]-pyrimidin-2-ylamino}-cyclohexyl)-N-methyl-methane-sulfonamide] |
| 154 to 156.5 | COCCOCc1cccc2c1ccn2-c1ccnc(N[C@H]2CC[C@H](N(C)S(C)(=O)=O)CC2)n1 [Compound 160, N-(4-{4-[4-(2-methoxy-ethoxymethyl)-indol-1-yl]-pyrimidin-2-ylamino}-cyclohexyl)-N-methyl-methane-sulfonamide] |
| 149 to 150 | CN([C@H]1CC[C@H](Nc2nccc(-n3ccc4c(C(C)(C)O)cccc43)n2)CC1)S(C)(=O)=O [Compound 161, N-(4-{4-[4-(1-hydroxy-1-methyl-ethyl)-indol-1-yl]-pyrimidin-2-yl-amino}-cyclohexyl)-N-methyl-methane-sulfonamide] |
| 187.8 to 189 | CN([C@H]1CC[C@H](Nc2nccc(-n3ccc4c(CC#N)cccc43)n2)CC1)S(C)(=O)=O [Compound 163, N-{4-[4-(4-cyano-methyl-indol-1-yl)-pyrimidin-2-ylamino]-cyclohexyl}-N-methyl-methanesulfonamide] |
| 216.5 to 217.5 | CN(c1cccc2c1ccn2-c1ccnc(N[C@H]2CC[C@H](C(C)(C)O)CC2)n1)S(C)(=O)=O [Compound 164, N-(1-{2-[4-(1-hydroxy-1-methyl-ethyl)-cyclo-hexylamino]-pyrimidin-4-yl}-1H-indol-4-yl)-N-methyl-methanesulfonamide] |
| 188.2 to 189.2 | CC(C)Oc1cccc2c1cnn2-c1ccnc(N[C@H]2CC[C@H](O)CC2)n1 [Compound 167, 4-[4-(4-isopropoxy-indazol-1-yl)-pyrimidin-2-ylamino]-cyclohexanol] |
| 226.8 to 227.3 | COC(=O)N[C@H]1CC[C@H](Nc2nccc(-n3ncc4c(OCCCS(C)(=O)=O)cccc43)n2)CC1 [Compound 170, (4-{4-[4-(3-methane-sulfonyl-propoxy)-indazol-1-yl]-pyrimidin-2-ylamino}-cyclohexyl)-carbamic acid methyl ester] |
| 189 to 190 | CN([C@H]1CC[C@H](Nc2nccc(-n3ccc4c(C(C)(C)C#N)cccc43)n2)CC1)S(C)(=O)=O [Compound 173, N-(4-{4-[4-(2-cyano-prop-2-yl)-indol-1-yl]-pyrimidin-2-ylamino}-cyclohexyl)-N-methyl-methanesulfonamide] |
| 196 to 197 | CC(C#N)c1cccc2c1ccn2-c1ccnc(N[C@H]2CC[C@H](N(C)S(C)(=O)=O)CC2)n1 (stereo partly shown) [Compound 174, N-(4-{4-[4-(1-cyano-ethyl)-indol-1-yl]-pyrimidin-2-ylamino}-cyclohexyl)-N-methyl-methanesulfonamide] |

| Compound | melting point [°C] |
| --- | --- |
| CCCCOc1cccc2c1cnn2-c1ccnc(N[C@H]2CC[C@H](O)CC2)n1 [Compound 168, 4-[4-(4-butoxy-indazol-1-yl)-pyrimidin-2-yl-amino]-cyclohexanol] | 195 to 196 |
| CC(C)COc1cccc2c1cnn2-c1ccnc(N[C@H]2CC[C@H](O)CC2)n1 [Compound 169, 4-[4-(4-isobutoxy-indazol-1-yl)-pyrimidin-2-ylamino]-cyclohexanol] | 189.3 to 190.3 |
